Results published in US10829441B2, “Reactive oxygen species-sensitive nitric oxide synthase inhibitors for the treatment of ischemic stroke” (The University of Toledo, priority 2017, dated 2020).
“And” between values parts separate entries of the source, which are not always exact repeats. Identical values can stand only once. “Also recorded” adds a separate entry of the source.

Key:
[1] = system: LPS-stimulated SIM-A9 cells; assay: Griess assay of nitrite in LPS-stimulated SIM-A9 microglia; format: cell-based, mouse; conditions: LPS 100 ng/mL; for nitrite / NO production after LPS (in words): 1.0 μM to 50 μM, 24 hr (FIG. 14); for nitrite after LPS (in words): 24 hr (FIG. 15B); for decrease in nitrite: 24 hr
Protocol: (§1) Human neuroblastoma SH-SY5Y cells and SIM-A9 mouse microglia (ATCC) were separately cultured on poly-D-lysine coated plates in 1:1 Dulbecco's Modified Eagle Medium/Ham's F12 (DMEM/F12) medium containing 5% fetal bovine serum, 5% horse serum, and penicillin-streptomycin. Cultures were stored in a 37° C. incubator with a 5% CO2 atmosphere. Cells were allowed to adhere overnight prior to subjection to experimental systems. 1×10^6 cells SH-SY5Y cells on 96-well plates were used for OGD experiments, and SIM-A9 cells were plated at a density of 1×10^6 on 24-well plates for Griess experiments.
SIM-A9 cells were treated with 100 ng/mL lipopolysaccharide (LPS, Sigma) along with vehicle or drug treatment for 24 hr. Conditioned medium was then diluted 1:1 with griess reagent (0.4% naphthylethylenediamine dihydro-chloride, and 4% sulphanilamide in 10% phosphoric acid), and analyzed by colorimetry at 540 nm after […]. Nitrite levels were reported as a ratio to LPS-treated, vehicle control.

[2] = system: phospho-Akt/total Akt ratio; assay: Western blot of SH-SY5Y cells exposed to OGD: pAkt/Akt; format: cell-based, Human; conditions: 1.0 μM, 24 hr treatment
[3] = HPLC-PDA analysis of nitrone decomposition in radical-generating systems; format: physicochemical; conditions: for decomposition to aldehyde in .OH (Fe—H2O2) system (in words) / decomposition to aldehyde in O2.^−/HO2. (KO2) system (in words) / decomposition to aldehyde in ONOO^−/HCl system (in words): 24 hr incubation at 37° C.
Protocol: To a stirring solution of 5 (5.0 mg, 1.0 eq) in 785 μL PBS was added 20 μL 6 N HCl at 37° C. Peroxynitrite (200 μL of a 50 mM solution in 0.3 M NaOH, 0.5 eq) was added in 50 μL aliquots over 5 min. The reaction was allowed to stir for 1 hr and monitored by HPLC-PDA. The solution was extracted with CH2Cl2 (2×0.5 mL) and the aqueous fractions were pooled then lyophilized. Addition of ACN (1.0 mL) to the white solid followed by filtration allowed separation from the insoluble salts. Lyophilization afforded 6 as a white solid (1.2 mg, 33.7%), NMR (CD3OD, 400 MHz): δ 10.04 (1H, s), δ 7.93-7.95 (2H, m), δ 7.71-7.65 (2H, m), 4.58 (2H, s), δ 2.30 (3H, s).
EPR spectra were collected at ambient temperature with microwave power 12.6 mW, frequency 9.86 GHz, receiver gain 1.0×10^5 or 1.0×10^4, modulation amplitude 1 G, scan time 20.48 sec, time constant 40.96 msec, and sweep width 120 G. Phosphate buffered saline (PBS) used for EPR was supplemented with diethylenetriaminepent-acetic acid (DTPA, 100 μM). ROS-generating solutions were rapidly added to solutions of indicated spin trap and taken up in 50 μL glass capillary tubes for EPR spectral acquisition. For HPLC-PDA analysis, solutions were allowed to incubate for 24 hr at 37° C., then diluted 1:1000 in 95:5 mobile phase A:B, and analyzed as above. Benzaldehyde (Sigma) was run separately as a control to compare to PBN-ROS systems and confirm PBN decomposition.
A 50 μL final 20% PBS/DMSO solution of 35 mM 5 or PBN contained 10 μL saturated KO2 DMSO.
A 50 μL final 30% PBS/DMSO solution of 35 mM 5 or PBN contained 90 mM FeSO4 and 1% H2O2.
A solution of ONOO^− in 0.3 M NaOH (Cayman Chemical) was determined to be 50 mM by absorbance at 302 nm using the literature extinction coefficient (1670 M^−1cm^−1). A 50 μL final 30% PBS/DMSO solution of 5 or PBN contained 10 mM ONOO^− at pH˜6 (HCl).

[4] = system: SH-SY5Y cells; assay: Oxygen-glucose deprivation (OGD) viability of SH-SY5Y cells (PrestoBlue); format: cell-based, Human; conditions: for viability relative to vehicle (in words) / viability, ratio to vehicle control: 1.5 hr OGD, 24 hr treatment
Protocol: as §1
(§2) Growth medium was removed from SH-SY5Y cells and replaced with sterile HBSS (140 mM NaCl, 3.5 mM KCl, 0.4 mM KH2PO4, 5 mM NaHCO3, 1.3 mM CaCl2, 1.2 mM MgSO4, 20 mM HEPES, pH 7.4, bubbled with 95%/5% N2/CO2), and placed in an air-tight container subsequently purged three times with 95%/5% N2/CO2. The container was then placed in a 37° C. incubator for 1.5 hr. After OGD, the cells were returned to a normoxic environment, and medium was replaced with growth medium and vehicle or treatment for 24 hr to simulate reperfusion. Sham cells were left in growth medium under a normoxic environment. Viability was measured by adding 10% Presto-Blue® Cell Viability Reagent (Thermo Fisher) for 30 min, and reading fluorescence at 560 nm/590 nm excitation/emission. Viability is reported as a ratio to vehicle-treated control, and readings result from separate OGD experiments (e.g. n=6 was from 6 different OGD assays). The experimental furoxan IS-1-41 was used as a positive control for OGD viability due to its reproducible protection in this paradigm.

[5] = system: SH-SY5Y cells; assay: OGD-induced formation of 6 from 5 in SH-SY5Y cells by LC-MS/MS; format: cell-based, Human; conditions: for level of 6 as 6:5 AUC: cell lysate (intracellular); for level of 6: supernatant
Protocol: as §2
(§3) Synthesized 5, and purchased 4(1H-Imidazol-1-yl)benzaldehyde (IBA, Sigma) were used to determine LC-MS/MS fragmentation. A solution of 5+ONOO^−/HCl from EPR studies was used for 6 fragmentation. MRM analysis of IBA (m/z 173.10→91.10, 104.10, 117.05; RT: 4.13 min), 5 (m/z 248.20→148.00, 134.15, 190.05; RT: 4.81 min), and 6 (m/z 177.00→119.10, 90.95, 65.15; RT: 3.87 min) were determined. A standard curve for 5 was generated using pure samples applied to blank matrix (0.01 μM, 0.1 μM, 0.5 μM, 1.0 μM, and 5.0 μM; R2=0.99) using the above HPLC solvents and LC curve at 0.4 mL/min.
(§4) In vitro supernatant samples were spiked with internal standard (200 μL 500 nM IBA in 2% FA) and used as collected, while cells were detached by trypsin, centrifuged (14 k rpm, 5 min, 4° C.) to isolate the pellet, then lysed by sonication (Sonic Dismembrator 500, Fisher) in 1 mL cold PBS+internal standard. Blood samples (100 μL) were spiked with internal standard, and centrifuged to collect the supernatant. Brain samples were weighed, homogenized by a Bullet Blender Storm (Next Advance Inc.) in 500 μL cold PBS+internal standard for 1 min at 4° C., then centrifuged to collect the supernatant. All samples were then worked up by solid phase extraction (Evolute Ex-press ABN cartridge, 30 mg/l mL, Biotage) using a Vac-master manifold (Biotage). Columns were washed with dH2O (1 mL), and analytes were eluted with MeOH (1 mL) and evaporated to dryness by high flow air purge. Samples were reconstituted in 200 μL 95:5 mobile phase A:B and analyzed by LC-MS/MS (2.0 μL injection volume). All samples were run in duplicate, and AUC for 5 and 6 were normalized to the intra-run IBA AUC to account for loss during workup. 5 concentrations were determined using std. curve, while 6 was expressed as a percentage of 5 AUC.

[6] = system: 3-Nitrotyrosine (3-NT); assay: Western blot of SH-SY5Y cells exposed to OGD: 3-nitrotyrosine; format: cell-based, Human; conditions: 1.0 μM, 24 hr treatment, vs vehicle
[7] = system: cerebral blood flow (CBF); assay: Laser Doppler cerebral blood flow (CBF) over the MCA of anesthetized mice; format: in vivo, C57BL/6 mice; conditions: for time point at which CBF increased: isoamyl nitrate vs low dose of 5 (1 mg/kg), intravenous
Protocol: (§5) Animals were anesthetized and the incision was performed as above to expose the temporal bone, through which the MCA was visible. The end of a fiber optic cable fitted to a MoorVMS-LDF Laser Doppler Monitor (Moor Instruments) was positioned in place over the MCA. The baseline CBF as flux was monitored for 5 min prior to intravenous injection by lateral tail vein of normal saline vehicle, […] (20 mg/kg), or 5. Measurements were taken every 5 minutes in triplicate for each animal, and reported as ratio to baseline. Animals were sacrificed at 25 min by CO2 inhalation, blood was collected into K2EDTA coated tubes (BD Microtainer®), and brains were rapidly dissected out and frozen on dry ice for LC-MS/MS analysis.

[8] = system: permanent MCA occlusion (pMCAO); format: in vivo
[9] = Plasma and brain levels of 5 and 6 by LC-MS/MS 25 min after intravenous administration; format: in vivo, C57BL/6 mice
Protocol: as §5, §3, §4

[10] = system: cleaved caspase-3; assay: Western blot of SH-SY5Y cells exposed to OGD: cleaved caspase-3; format: cell-based, Human; conditions: 1.0 μM, 24 hr treatment, vs vehicle
[11] = 25 min after intravenous 5, n=6

Structure (SMILES): CC(=N)NCc1cccc(CN)c1 [1400W, reference compound]
- nitrite / NO production after LPS (in words) [1]: anti-inflammatory ability
- nitrite after LPS (in words) ([1]; 1.0 μM): attenuated

Structure (SMILES): CC(C)(C)[N+]([O-])=Cc1ccccc1 [PBN, N-tert-butyl-α-phenylnitrone, reference compound]
- phospho-Akt/total Akt ratio (in words) [2]: increase was also observed; also recorded: increase in Akt phosphorylation, although not significant
- decomposition to aldehyde in .OH (Fe—H2O2) system (in words) [3]: minor formation
- decomposition to aldehyde in O2.^−/HO2. (KO2) system (in words) [3]: Significant BnA formation
- decomposition to aldehyde in ONOO^−/HCl system (in words) [3]: Significant BnA formation
- nitrite / NO production after LPS (in words) [1]: not observed to cause a reduction in nitrate
- nitrite after LPS (in words) ([1]; 1.0 μM): attenuated
- viability relative to vehicle (in words) ([4]; 0.05 μM to 100 μM): did not approach significance at any concentration tested

Structure (SMILES): CC(=N)NCc1cccc(/C=[N+](\[O-])C(C)(C)C)c1 [compound 5, N-tert-butyl-α-(3-[ethanimidamidomethyl]phenyl)nitrone]
- cell permeability (in words) [5]: cell permeable
- phospho-Akt/total Akt ratio ([2]; vs vehicle): 4.1 times higher
- conversion of 5 to 6 by HPLC-PDA ([3]; 0.50 eq ONOO^−, PBS/HCl pH 6, 37° C., after one hour): 95.4%
- decomposition to aldehyde in .OH (Fe—H2O2) system (in words) [3]: substantial formation of 6; also recorded: Minor 6 formation
- decomposition to aldehyde in O2.^−/HO2. (KO2) system (in words) [3]: substantial formation of 6; also recorded: significant 6 formation
- decomposition to aldehyde in ONOO^−/HCl system (in words) [3]: complete conversion; also recorded: no observed 5 remaining
- 3-NT ameliorated [6]: 48%
- CBF over 20 min ([7]; 1 mg/kg intravenous): 126%±4.6%
- CBF over 20 min ([7]; 10 mg/kg intravenous): 102%±0.7%
- time point at which CBF increased [7]: 5 min
- nitrite / NO production after LPS (in words) [1]: not observed to lower NO production
- nitrite after LPS (in words) ([1]; 1.0 μM): attenuated
- viability, ratio to vehicle control ([4]; 0.1 μM): 1.21 times greater than vehicle
- viability, ratio to vehicle control ([4]; 1.0 μM): 2.57 times greater than vehicle
- viability relative to vehicle (in words) ([4]; 100 μM): decline to baseline; also recorded: not observed to be toxic, but rather non-neuroprotective
- optimal dose (highest neuroprotection) ([4]; dose-finding study 0.05 μM to 100 μM): 1.0 µM
- tolerability / adverse effects ([8]; 10 mg/kg and 1 mg/kg intravenous): well tolerated
- forelimb grip strength (in words) ([8]; 24, 48, 72 hr after pMCAO): improved grip strength
- rota rod performance (in words) ([8]; 24, 48, 72 hr after pMCAO): No significant differences
- Neurological deficit scoring (NDS), 28-point system ([8]; 72 hr after pMCAO, 10 mg/kg iv at 3 and 6 hr, then 1 mg/kg twice daily): 4.2±0.4
- decrease in infarct volume compared to vehicle ([8]; TTC staining 72 hr after pMCAO, 10 mg/kg iv at 3 and 6 hr, then 1 mg/kg twice daily): > 30% and 37%
- Kp at 25 min ([9]; C57BL/6, mouse, in vivo): 0.029 ± 0.01
- half-life (in words) ([9]; mouse, in vivo): short half-life
- cleaved caspase-3 reduction [10]: 47%

Structure (SMILES): CC(=N)NCc1cccc(C=O)c1 [compound 6, N-[(3-formylphenyl)methyl]ethanimidamide]
- level of 6 as 6:5 AUC ([5]; OGD-exposed cells treated 24 hr with 10 μM 5): 129 % 6:5 AUC
- level of 6 as 6:5 AUC ([5]; sham cells treated 24 hr with 10 μM 5): 29 % 6:5 AUC
- level of 6 ([5]; OGD-exposed cells treated with 5): 18.6 % of 5 AUC
- level of 6 ([5]; sham cells treated with 5): 7.88 % of 5 AUC
- nitrite / NO production after LPS (in words) [1]: dose-dependent decrease in nitrite
- decrease in nitrite ([1]; 1.0 μM): ~19%
- decrease in nitrite ([1]; 50 μM): −33%
- level of 6 in brain [9, 11]: 24.5%±0.1%
- level of 6 in plasma [9, 11]: 12.7%±0.2%

Structure (SMILES): CC(C)CCO[N+](=O)[O-] [isoamyl nitrate, reference compound]
- CBF over 20 min ([7]; 20 mg/kg intravenous): 111%±4.0%
- time point at which CBF increased [7]: 20 min
